In patent US6375993B1, “Pomegranate extracts and methods of using thereof” (priority 1999, dated 2002):

Assay: Copper-ions chelating capacity (LDL oxidation at increasing CuSO4)
Format: biochemical
Details: 25 μmol/L of EDTA; TBARS, two hours, 37° C.
Method: In order to examine whether pomegranate juice inhibits LDL oxidation by chelation of metal ions, LDL (100 mg of protein/L) was incubated with 0.2 mL of pomegranate juice/L (0.56 μmol of polyphenols/L) in the presence of increasing concentrations of copper ions. Incubation of LDL with 25 μmol/L of Na2 EDTA served as a positive control, as EDTA is a potent chelator of metal ions. […] At higher copper ion concentrations, EDTA could no longer overcome the pro-oxidative effect of CuSO4.

## O=C([O-])CN(CCN(CC(=O)[O-])CC(=O)O)CC(=O)O.[Na+].[Na+] [EDTA, Na2 EDTA]
  CuSO4 concentration up to which copper ion-induced LDL oxidation was inhibited: up to 40 μmol/L
